Holding throughout (assay type): in vivo
For one data set, the system named is Triticum aestivum. As to the method: (§1) A plastic cup with a diameter of 8 cm and a depth of 6.5 cm was filled with soil. Seeds of wheat (Triticum aestivum) and one or more kinds of test plant selected from Alopecurus myosuroides, Lolium multiflorum, Setaria viridis, Sinapis arvensis and Stellaria media were sowed in the cup, and then grown in a greenhouse until Triticum aestivum was grown in the second to third leaf stage. Then, a test dilution containing predetermined amounts of the present compound, a compound selected from Group A and a compound selected from Group B was sprayed onto the whole plants uniformly. The test dilution was prepared by dissolving a predetermined amount of each compound in a 2% solution of Tween 20 (polyoxyethylene sorbitan fatty acid ester, MP Biomedicals, Inc.) in dimethylformamide and then diluting the solution with water, and then mixing the respective water dilutions thus obtained of the present compound, a compound selected from Group A and a compound selected from Group B. After the spray treatment, the plants were grown in a greenhouse for 21 days.

Another data set concerns Setaria viridis. The data set is described as follows: Test Example 1: greenhouse spray test, herbicidal effect on Setaria viridis. As to the method: as §1, with “days. The herbicidal effect was rated in 101 levels from 0 (no effect) to 100 (complete death).” for “days.”
The test system of another data set is Sinapis arvensis. The data set is described as follows: Test Example 1: greenhouse spray test, herbicidal effect on Sinapis arvensis. The protocol: as §1, with “days. The herbicidal effect was rated in 101 levels from 0 (no effect) to 100 (complete death).” for “days.”
For a further data set, the system named is Stellaria media. Briefly: Test Example 1: greenhouse spray test, herbicidal effect on Stellaria media. The protocol:
as §1

The next data set deals with Lolium multiflorum. Briefly: Test Example 1: greenhouse spray test, herbicidal effect on Lolium multiflorum. The protocol: as §1
The next data set concerns Alopecurus myosuroides. The data set is described as follows: Test Example 1: greenhouse spray test, herbicidal effect on Alopecurus myosuroides. The protocol: as §1, with “days. The herbicidal effect was rated in 101 levels from 0 (no effect) to 100 (complete death).” for “days.”
Setting [1] is: amount of chemical 20 g/ha, 21 days after spray, scale 0 (no effect) to 100 (complete death).
[2] abbreviates: amount of chemical 200 g/ha, 21 days after spray, scale 0 (no effect) to 100 (complete death).
Setting [3] is: Lolium multiflorum, 504 h, read-out: herbicidal effect on Lolium multiflorum.
Setting [4] is: amount of chemical 6.3 g/ha, 21 days after spray, scale 0 (no effect) to 100 (complete death).
Where [5] appears, read: Lolium multiflorum, 504 h, amount of chemical 6.3 g/ha, 21 days after spray, scale 0 (no effect) to 100 (complete death), read-out: herbicidal effect on Lolium multiflorum.
The mark [6] stands for this setting: amount of chemical 5 g/ha, 21 days after spray, scale 0 (no effect) to 100 (complete death).
The mark [7] stands for this setting: amount of chemical 0.1 g/ha, 21 days after spray, scale 0 (no effect) to 100 (complete death).
Setting [8] is: amount of chemical 0.2 g/ha, 21 days after spray, scale 0 (no effect) to 100 (complete death).
Where [9] appears, read: amount of chemical 25 g/ha, 21 days after spray, scale 0 (no effect) to 100 (complete death).
Where [10] appears, read: amount of chemical 3.1 g/ha, 21 days after spray, scale 0 (no effect) to 100 (complete death).
The mark [11] stands for this setting: amount of chemical 0.25 g/ha, 21 days after spray, scale 0 (no effect) to 100 (complete death).

Where “and” joins values, the source holds several entries; their conditions need not be identical. Equal values may be shown once. Read-outs that look alike come from different tables or passages of the source.

`O=C(O)COc1ccc(Cl)cc1Cl` [2,4-D]: in the data set with Triticum aestivum (amount of chemical 25 g/ha), the “herbicidal effect on Triticum aestivum” value came out at 0. Besides, in the data set on Setaria viridis (amount of chemical 25 g/ha), the “herbicidal effect on Setaria viridis” value is on record as 0. In addition, the “herbicidal effect on Sinapis arvensis” value with Sinapis arvensis (amount of chemical 25 g/ha) is given as 80.
Turning to `N#Cc1cc(Br)c(O)c(Br)c1` [Bromoxynil, bromoxynil], the results for the “herbicidal effect on Stellaria media” value with Stellaria media (setting [1]) and with Stellaria media (setting [2]) were 0 and 10, respectively. In addition, the “herbicidal effect on Triticum aestivum” value is listed as 0 in the data set on Triticum aestivum (setting [1]) and 5 in the data set on Triticum aestivum (setting [2]). For the same compound, the pest or weed control at 20 g/ha in the data set with Lolium multiflorum (setting [3]) was determined as 0%. For the same compound, in the data set with Lolium multiflorum (setting [3]), the pest or weed control at 200 g/ha stood at 0%.
As to `COc1nc(C)nc(NC(=O)NS(=O)(=O)c2ccccc2Cl)n1` [Chlorsulfuron], in the data set with Alopecurus myosuroides (amount of chemical 1 g/ha), the “herbicidal effect on Alopecurus myosuroides” value was 0.
`O=C(O)c1nc(Cl)ccc1Cl` [Clopyralid]: in the data set on Triticum aestivum (amount of chemical 100 g/ha), the “herbicidal effect on Triticum aestivum” value came out at 0. The “herbicidal effect on Alopecurus myosuroides” value in the data set on Alopecurus myosuroides (amount of chemical 100 g/ha) was found to be 0.
For `CCCCCC(C)OC(=O)COc1ccc(Cl)c2cccnc12` (stereo not drawn) [Cloquintocet-mexyl, cloquintocet-mexyl], the “herbicidal effect on Stellaria media” value with Stellaria media (setting [4]) was 0. Further, the “herbicidal effect on Alopecurus myosuroides” value with Alopecurus myosuroides (amount of chemical 6.3 g/ha) and with Alopecurus myosuroides (setting [4]) was 0 throughout. The pest or weed control at 6.3 g/ha with Lolium multiflorum (setting [5]) turned out to be 0%. The “herbicidal effect on Sinapis arvensis” value in the data set on Sinapis arvensis (setting [4]) was 0.
The compound `COc1c(Cl)ccc(Cl)c1C(=O)O` [Dicamba] gave a pest or weed control at 50 g/ha with Lolium multiflorum (Lolium multiflorum, 504 h, amount of chemical 50 g/ha) of 0%.
On to `CCOC(=O)c1nc(C(Cl)(Cl)Cl)n(-c2ccc(Cl)cc2Cl)n1` [Fenchlorazole-ethyl, fenchlorazole-ethyl], for which, in the data set on Setaria viridis (amount of chemical 6.3 g/ha), the “herbicidal effect on Setaria viridis” value came to 0. In addition, the pest or weed control at 5 g/ha in the data set with Lolium multiflorum (Lolium multiflorum, 504 h, amount of chemical 5 g/ha, 21 days after spray, scale 0 (no effect) to 100 (complete death)) was 0%. In addition, the pest or weed control at 6.3 g/ha in the data set with Lolium multiflorum (setting [5]) is 0%. For the same compound, the “herbicidal effect on Sinapis arvensis” value with Sinapis arvensis (setting [6]) and in the data set with Sinapis arvensis (amount of chemical 6.3 g/ha) was 0 throughout.
As to `COc1ncc(F)c2nc(S(=O)(=O)Nc3c(F)cccc3F)nn12` [Florasulam, florasulam], the “herbicidal effect on Triticum aestivum” value in the data set on Triticum aestivum (amount of chemical 0.1 g/ha), in the data set on Triticum aestivum (setting [7]) and in the data set on Triticum aestivum (setting [8]) was 0 in each case. In addition, the “herbicidal effect on Lolium multiflorum” value with Lolium multiflorum (amount of chemical 0.1 g/ha), in the data set on Lolium multiflorum (setting [7]) and in the data set with Lolium multiflorum (setting [8]) was 0 each time.
For the compound `Nc1c(Cl)c(F)nc(OCC(=O)O)c1Cl` [Fluroxypyr], the “herbicidal effect on Stellaria media” value with Stellaria media (setting [9]) worked out at 40. The “herbicidal effect on Triticum aestivum” value in the data set on Triticum aestivum (setting [9]) came to 0. For the same compound, the “herbicidal effect on Alopecurus myosuroides” value in the data set on Alopecurus myosuroides (setting [9]) was 0.
As to `CCc1cc(C)cc(CC)c1-c1c(O)c(C)nn(C)c1=O` [I-a-14, 4-(2,6-diethyl-4-methylphenyl)-5-hydroxy-2,6-dimethyl-3(2H)-pyridazinone], the “herbicidal effect on Stellaria media” value in the data set on Stellaria media (setting [9]) was 50. The “herbicidal effect on Alopecurus myosuroides” value in the data set on Alopecurus myosuroides (setting [9]) was 90. The compound further registered a pest or weed control at 25 g/ha with Lolium multiflorum (Lolium multiflorum, 504 h, amount of chemical 25 g/ha, 21 days after spray, scale 0 (no effect) to 100 (complete death)) of 90%. Besides, the “herbicidal effect on Sinapis arvensis” value in the data set on Sinapis arvensis (setting [9]) was 60.
Regarding `CCc1cc(CC)c(-c2c(O)c(C)nn(C)c2=O)c(CC)c1` [I-a-17], the “herbicidal effect on Triticum aestivum” value in the data set with Triticum aestivum (setting [6]) was found to be 5. Moreover, the “herbicidal effect on Lolium multiflorum” value in the data set on Lolium multiflorum (setting [6]) is 10. The “herbicidal effect on Sinapis arvensis” value in the data set on Sinapis arvensis (setting [6]) is recorded as 30.
For `CCc1cc(C)cc(C)c1-c1c(O)c(C)nn(C)c1=O` [I-a-18], the “herbicidal effect on Stellaria media” value with Stellaria media (setting [4]) stood at 5. Also, in the data set with Triticum aestivum (setting [4]), the “herbicidal effect on Triticum aestivum” value is listed as 5. In the data set on Lolium multiflorum (setting [4]), the “herbicidal effect on Lolium multiflorum” value was found to be 60.
With `CCc1cc(C)cc(CC)c1-c1c(OC(C)=O)c(C)nn(C)c1=O` [I-b-14], the “herbicidal effect on Triticum aestivum” value in the data set with Triticum aestivum (setting [4]) worked out at 5. In addition, the “herbicidal effect on Lolium multiflorum” value in the data set on Lolium multiflorum (setting [4]) was determined as 70.
Regarding `CCOC(=O)Oc1c(C)nn(C)c(=O)c1-c1c(CC)cc(C)cc1CC` [I-b-18], the “herbicidal effect on Stellaria media” value in the data set on Stellaria media (amount of chemical 25 g/ha) came out at 5. In addition, the “herbicidal effect on Triticum aestivum” value with Triticum aestivum (amount of chemical 25 g/ha) and in the data set with Triticum aestivum (setting [9]) was 10 each time. The “herbicidal effect on Lolium multiflorum” value with Lolium multiflorum (amount of chemical 25 g/ha) and with Lolium multiflorum (setting [9]) was 30 in each case.
With `CCc1cc(C)cc(CC)c1-c1c(OC(=O)OC)c(C)nn(C)c1=O` [I-b-25], in the data set with Triticum aestivum (amount of chemical 25 g/ha), the “herbicidal effect on Triticum aestivum” value is 5. In addition, the “herbicidal effect on Setaria viridis” value with Setaria viridis (amount of chemical 25 g/ha) came out at 95. The “herbicidal effect on Sinapis arvensis” value with Sinapis arvensis (amount of chemical 25 g/ha) is 20.
With `CCOC(=O)Oc1c(C)nn(C)c(=O)c1-c1c(C)cc(C)cc1CC` [I-b-35], the “herbicidal effect on Triticum aestivum” value in the data set on Triticum aestivum (amount of chemical 25 g/ha) was 10. Besides, the “herbicidal effect on Alopecurus myosuroides” value with Alopecurus myosuroides (amount of chemical 25 g/ha) was 50.
As for `CCc1cc(CC)c(-c2c(OC(=O)OC)c(C)nn(C)c2=O)c(CC)c1` [I-b-36], the “herbicidal effect on Triticum aestivum” value with Triticum aestivum (amount of chemical 25 g/ha) is on record as 10. For the same compound, the “herbicidal effect on Alopecurus myosuroides” value in the data set with Alopecurus myosuroides (amount of chemical 25 g/ha) is listed as 50.
Turning to `CCOC(=O)C1=NN(c2ccc(Cl)cc2Cl)C(C)(C(=O)OCC)C1` (stereo not drawn) [Mefenpyr-diethyl, mefenpyr-diethyl], the “herbicidal effect on Stellaria media” value with Stellaria media (setting [10]), in the data set with Stellaria media (amount of chemical 6.3 g/ha) and in the data set on Stellaria media (setting [4]) was 0 each time. The “herbicidal effect on Triticum aestivum” value in the data set with Triticum aestivum (setting [10]), in the data set on Triticum aestivum (amount of chemical 6.3 g/ha) and in the data set on Triticum aestivum (setting [4]) was 0 in each case. Moreover, in the data set with Lolium multiflorum (setting [3]), the pest or weed control at 3.1 g/ha amounted to 0%. The pest or weed control at 6.3 g/ha in the data set with Lolium multiflorum (setting [3]) turned out to be 0%. Besides, the “herbicidal effect on Lolium multiflorum” value in the data set with Lolium multiflorum (amount of chemical 6.3 g/ha) was 0.
Turning to `COC(=O)c1ccccc1S(=O)(=O)NC(=O)Nc1nc(C)nc(OC)n1` [Metsulfuron-methyl, metsulfuron-methyl], in the data set with Triticum aestivum (setting [7]), the “herbicidal effect on Triticum aestivum” value is on record as 0. Besides, in the data set with Lolium multiflorum (Lolium multiflorum, 504 h, amount of chemical 0.1 g/ha, 21 days after spray, scale 0 (no effect) to 100 (complete death)), the pest or weed control at 0.1 g/ha is 0%. Further, the “herbicidal effect on Sinapis arvensis” value in the data set with Sinapis arvensis (setting [7]) was 70.
On to `Cc1nn(C)c(O)c1C(=O)c1ccc(C(F)(F)F)cc1S(C)(=O)=O` [Pyrasulfotole, pyrasulfotole], for which the “herbicidal effect on Triticum aestivum” value with Triticum aestivum (setting [1]) came to 15. In addition, the “herbicidal effect on Lolium multiflorum” value with Lolium multiflorum (setting [1]) is 0. Besides, in the data set with Sinapis arvensis (setting [1]), the “herbicidal effect on Sinapis arvensis” value is listed as 70.
As to `COC(=O)c1sccc1S(=O)(=O)NC(=O)Nc1nc(C)nc(OC)n1` [Thifensulfuron-methyl, thifensulfuron-methyl], in the data set with Stellaria media (amount of chemical 1 g/ha), the “herbicidal effect on Stellaria media” value was determined as 50.
`COC(=O)c1ccccc1S(=O)(=O)NC(=O)N(C)c1nc(C)nc(OC)n1` [Tribenuron-methyl, tribenuron-methyl]: the “herbicidal effect on Stellaria media” value in the data set on Stellaria media (setting [11]) is 90 and 80. For the same compound, in the data set with Triticum aestivum (setting [11]), the “herbicidal effect on Triticum aestivum” value is on record as 0. In the data set with Lolium multiflorum (Lolium multiflorum, 504 h, amount of chemical 0.25 g/ha, 21 days after spray, scale 0 (no effect) to 100 (complete death)), this compound showed a pest or weed control at 0.25 g/ha of 0%.

Source of the values: patent publication US20110319266A1, “HERBICIDAL COMPOSITION” (priority 2009, published 2011).
